The record followed here is ChEMBL document CHEMBL2424581, “Optimization of phage heptapeptide library-screening process for developing inhibitors of the isocitrate lyase homologue from Mycobacterium tuberculosis” (Med Chem Res, 2013).

In assay [1] the target is T1, Isocitrate lyase (Mycobacterium tuberculosis, UniProt P9WKK7).
T1 sequence (P9WKK7 whole entry): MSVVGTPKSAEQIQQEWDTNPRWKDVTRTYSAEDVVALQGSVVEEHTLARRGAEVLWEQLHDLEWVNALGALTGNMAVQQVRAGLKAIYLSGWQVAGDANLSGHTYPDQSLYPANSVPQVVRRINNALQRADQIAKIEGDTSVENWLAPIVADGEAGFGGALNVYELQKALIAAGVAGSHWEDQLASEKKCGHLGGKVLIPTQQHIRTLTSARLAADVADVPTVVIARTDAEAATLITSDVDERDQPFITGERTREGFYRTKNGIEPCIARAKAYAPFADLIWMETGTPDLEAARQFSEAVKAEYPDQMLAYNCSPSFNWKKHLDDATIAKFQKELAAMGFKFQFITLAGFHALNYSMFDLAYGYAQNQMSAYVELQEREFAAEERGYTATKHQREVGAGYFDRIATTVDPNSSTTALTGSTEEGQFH
The experiment in a line: Inhibition of Mycobacterium tuberculosis recombinant isocitrate lyase expressed in Escherichia coli BL21 (DE3) using isocitrate as substrate after 10 mins by spectrometric analysis.

Assay [2] addresses T2, Isocitrate lyase (Mycobacterium tuberculosis) (UniProt P9WKK7).
T2 sequence (whole entry): T1 sequence (P9WKK7 whole entry)
Description: Inhibition of Mycobacterium tuberculosis recombinant isocitrate lyase expressed in Escherichia coli BL21 (DE3) using isocitrate as substrate at 1 mg/mL by spectrometric analysis relative to control.

The IC50 is the concentration that inhibits the measured activity by half. In the case of `O=C(O)CC[N+](=O)[O-]`, the IC50 in assay [1] turned out to be 50.7 µM. Broadly, the inhibition is the relative decrease from the control value, in per cent. On to H-HISHLML-OH, for which the half-maximal inhibitory concentration (IC50) in assay [1] turned out to be 192 µM. Besides, the inhibition in assay [2] was found to be 51%. Consider H-HYSSHMR-OH [listing 1 of 2 here], for which the IC50 in assay [1] was 126 µM. H-HYSSHMR-OH [listing 2 of 2 here]: in assay [2], the inhibition worked out at 72%. Consider H-LTLGPLL-OH, for which, in assay [1], the IC50 amounted to 208 µM. For the same compound, the inhibition in assay [2] was 55%. In the case of H-LTQHLTA-OH, in assay [1], the half-inhibitory concentration (IC50) was 214 µM. For the same compound, in assay [2], the inhibition was 56%.

Take H-LYALATM-OH: the 50% inhibitory concentration (IC50) in assay [1] came out at 204 µM. The inhibition in assay [2] turned out to be 52%. In the case of H-NPPERSP-OH, the IC50 in assay [1] is 142 µM. Moreover, in assay [2], the inhibition amounted to 73%. Taken in the same sequence, the figures for H-NSSSLAQ-OH were 190 µM and 62%. The matching figures for H-QKASPGA-OH: 172 µM and 73%. Turning to H-SARVTSR-OH [listing 1 of 2 here], in assay [1], the IC50 was 166 µM. In the case of H-SARVTSR-OH [listing 2 of 2 here], the inhibition in assay [2] was 65%. In the case of H-TELSLPS-OH, in assay [1], the half-maximal inhibitory concentration (IC50) amounted to 182 µM. Also, in assay [2], the inhibition turned out to be 61%.

With H-TMHLSPY-OH, in assay [1], the 50% inhibitory concentration (IC50) stood at 156 µM. The inhibition in assay [2] came to 63%. Taken in the same sequence, the figures for H-VTSLKAT-OH were 228 µM and 51%.
